{"source": "paper PMC11438102", "about": "“Modulation of cannabinoid receptor 2 alters neuroinflammation and reduces formation of alpha-synuclein aggregates in a rat model of nigral synucleinopathy” (Journal of Neuroinflammation, 2024)", "key": {"[1]": {"system": "human Asyn (pSer129, proteinase K-resistant, total) in substantia nigra", "assay": "Immunohistochemistry of Asyn species in substantia nigra, optical density", "format": "in vivo", "settings": "rat low cohort, 6 mg/kg i.p. daily 7 weeks", "protocol": "Rats were administered unilateral injections of AAV2/5-human wild-type (WT) Asyn at titers of 2.9–4.3 × 10^11 vector genomes (vg)/mL (termed “low cohort”), which was previously shown to not induce nigral neurotoxicity [27]. Thereby, generating a model with overexpression of human WT Asyn and Asyn-mediated neuroinflammation. One week after surgery, animals were randomly selected to receive daily systemic injections of either SMM-189 (intraperitoneal (i.p.), 6 mg/kg, n = 12) or vehicle (i.p., n = 12) and followed for 8 weeks (Figs. 1; n = 2 rats per group were removed due to poor nigral targeting). […] After blood collection, animals were transcardially perfused with ice-cold PBS and the frontal cortex frozen for gene analysis, the striatum frozen for western blotting analysis, and the midbrain post-fixated in 4% PFA to be processed for immunohistochemistry. A second low cohort of rats (SMM-189 n = 6 or vehicle n = 3 with n = 2 removed due to poor nigral targeting) completed the study and provided extra tissue to perform additional immunohistochemical and western blotting analyses.\nBrains were post-fixed in 4%PFA for 48 h and transferred to 30% sucrose and cut at 40 μm on a freezing microtome. In brief, endogenous peroxidase was quenched with 3% hydrogen peroxide, blocked with 8% normal serum, avidin (Vector Cat#SP-2001) and 0.1% Triton-X and incubated overnight at 4°C with biotin (Vectorlabs Cat#SP-2001), normal serum and primary antibodies specific for Asyn (Clone 4B12; BioLegend Cat# 807801, RRID: AB_2564730), pSer129 Asyn (Clone EP1536Y; Abcam Cat# ab51253, RRID: AB_869973), CD68 (Bio-Rad Cat# MCA341R, RRID: AB_2291300), MHCII (Bio-Rad Cat# MCA46GA, RRID: AB_567369), and CD163 (Bio-Rad Cat# MCA342A, RRID: AB_2074557). Tissue was incubated in appropriate biotinylated secondary antibodies (1:200), amplified with Vectastain ABC kit (Vectorlabs Cat#PK-6100) and developed with diaminobenzidine tablets or diaminobenzidine drop kit with nickel (Vector Cat#SK-4100) for CD68 immunostaining. […]"}, "[2]": {"system": "CB2", "set-up": "method as in PMID 27766068", "settings": "microglia; cited from earlier work"}, "[3]": {"system": "IBA1, CD68, CD163, MHCII in substantia nigra", "assay": "Immunohistochemistry/immunofluorescence of immune cell markers in substantia nigra", "format": "in vivo", "settings": "rat low cohort, 6 mg/kg i.p. daily 7 weeks, vs vehicle", "description": "Brains were post-fixed in 4%PFA for 48 h and transferred to 30% sucrose and cut at 40 μm on a freezing microtome. In brief, endogenous peroxidase was quenched with 3% hydrogen peroxide, blocked with 8% normal serum, avidin (Vector Cat#SP-2001) and 0.1% Triton-X and incubated overnight at 4°C with biotin (Vectorlabs Cat#SP-2001), normal serum and primary antibodies specific for Asyn (Clone 4B12; BioLegend Cat# 807801, RRID: AB_2564730), pSer129 Asyn (Clone EP1536Y; Abcam Cat# ab51253, RRID: AB_869973), CD68 (Bio-Rad Cat# MCA341R, RRID: AB_2291300), MHCII (Bio-Rad Cat# MCA46GA, RRID: AB_567369), and CD163 (Bio-Rad Cat# MCA342A, RRID: AB_2074557). Tissue was incubated in appropriate biotinylated secondary antibodies (1:200), amplified with Vectastain ABC kit (Vectorlabs Cat#PK-6100) and developed with diaminobenzidine tablets or diaminobenzidine drop kit with nickel (Vector Cat#SK-4100) for CD68 immunostaining.\nTissue was blocked with 5% normal serum in TBS + 0.25% Triton-X and further incubated overnight at 4°C with primary antibodies specific for IBA1 (FUJIFILM Wako Pure Chemical Corporation Cat# 019-19741, RRID: AB_839504) and tyrosine hydroxylase (ImmunoStar Cat# 22941, RRID: AB_572268) to identify microglia in the substantia nigra or tyrosine hydroxylase (Millipore Cat# AB152, RRID: AB_390204) and Asyn (Clone 4B12; BioLegend Cat# 807801, RRID: AB_2564730) to evaluate accuracy of stereotaxic injection targets. Tissue was incubated in secondary antibodies conjugated to appropriate fluorophores for 2 h at room temperature and mounted tissue with Vectashield, an aqueous mounting media with DAPI (Vectorlabs Cat#H-2000).\nIBA1-positive total immune cell counts and area of immunoreactivity (ir) were quantified using Nikon NIS elements software. Four fluorescent z-stacks of IBA1 stained nigra were collected from images of lesioned and non-lesioned nigra from targeted low cohort animals using a Nikon Eclipse 90i microscope and maximum project images were used for quantification. CD68-ir and CD163-ir was quantified from two to three microphotographs from each animal throughout the substantia nigra using ImageJ particle count analysis. Microphotographs of the nigra immunochemically stained for either Asyn, pSer129 Asyn and proteinase K-resistant Asyn were quantified using Image J (version 1.54f). Regions of Interest (ROIs) were drawn on two to three images throughout the nigra and optical density measurements collected and averaged for each animal. Measurements were normalized to the vehicle group so that data from all cohorts could be combined."}, "[4]": {"system": "CD206, YM1, TGFb, TNF, CB2 gene expression", "assay": "qPCR of immune markers in frontal cortex and PBMCs", "format": "in vivo", "settings": "rat low cohort", "description": "PBMCs were isolated from blood of low cohort rats at euthanasia (8 weeks) for qPCR analysis of immune genes and from blood of high cohort rats at baseline, 4 and 8 weeks after AAV2/5-human WT Asyn and evaluated with flow cytometry for a longitudinal immunophenotype assessment. Red blood cells were lysed using 1x RBC lysis buffer (Biolegend Cat#420301) for 5 min in the dark. Lysis buffer was neutralized by adding 1x HBSS (Gibco Cat#14175095). Cells were pelleted by centrifugation at 400g for 5 min, supernatant removed, and cells washed with HBSS. For the high cohort, cells were resuspended in 200μL of PBS and transferred to a 96-well v-bottom plate for flow cytometry staining. For low cohort, 10,000 cells were lysed in 600μL RLT lysis buffer (Qiagen Cat#79216) + 1% BME, further homogenized by centrifugation through a QiaShredder column (2 min at 21,130g). Lysate was then stored at -80°C and later processed for RNA extraction.\nTotal RNA was extracted from the frontal cortex and from PBMCs of low cohort animals and standardized across all samples and groups. In short, tissue was suspended in Trizol and homogenized with a TissueLyser (Retsch). Homogenate was incubated with chloroform and RNA separated by centrifugation of […] for 15 min at 4°C. RNA was further isolated with a RNAeasy mini kit (Qiagen). The RNA (1 µg) was then reverse transcribed to cDNA and analyzed with primers (Integrated DNA Technologies) for pro-inflammatory and anti-inflammatory immune markers and CB2 (Table 1) by qRT-PCR using protocols previously published. Resulting threshold cycle (Ct) values were analyzed by the 2-ΔΔCt method using the AAV2/5-hαsyn + vehicle as the control group and normalized to GAPDH for PBMCs and HPRT1 for frontal cortex as the housekeeping genes."}, "[5]": {"system": "deep cervical lymph nodes (DCLN) and splenocytes", "assay": "Flow cytometry of deep cervical lymph nodes and splenocytes (high cohort)", "format": "in vivo, rat", "settings": "8-week endpoint"}, "[6]": {"settings": "frontal cortex, relative to vehicle"}}, "note": "Entries after “also recorded” stand apart in the source; their conditions may differ."}
{"smiles": "O=C(c1ccccc1)c1cc(O)c(-c2cc(Cl)cc(Cl)c2)c(O)c1", "note": "[SMM-189]", "values": [{"measurement": "total human Asyn in substantia nigra, optical density", "setting": "[1]; clone 4B12, vs vehicle", "result": "not different"}, {"measurement": "pS129-ir optical density in substantia nigra, normalized to vehicle", "setting": "[1]; lesioned nigra", "result": "reduced"}, {"measurement": "proteinase-K resistant Asyn in substantia nigra, optical density", "setting": "[1]; vs vehicle", "result": "decreased"}, {"measurement": "levels of nuclear phosphorylated cAMP response-element binding protein (pCREB)", "setting": "[2]", "result": "increased"}, {"measurement": "IBA1 counts and area in nigra, effect of treatment", "setting": "[3]", "result": "not a significant effect of treatment"}, {"measurement": "intensity or area coverage of MHCII in the lesioned nigra", "setting": "[3]", "result": "No differences"}, {"measurement": "nigral CD68-ir particle counts", "setting": "[3]; AAV-injected nigra", "result": "increased"}, {"measurement": "CD163 in the nigra", "setting": "[3]; lesioned nigra", "result": "decreased"}, {"measurement": "TGFβ gene expression", "setting": "[4]; PBMCs, relative to vehicle", "result": "increased"}, {"measurement": "TNF transcript", "setting": "[4]; endpoint PBMCs, relative to vehicle", "result": "decreased"}, {"measurement": "CB2 gene expression", "setting": "[4]; frontal cortex and PBMCs, between groups", "result": "not different"}, {"measurement": "CD206 gene expression", "setting": "[4]; [6]", "result": "increased"}, {"measurement": "YM1 gene expression", "setting": "[4]; [6]", "result": "increased"}, {"measurement": "DCLN myeloid populations including classical CD43-His48+ or CD11b+ monocytes", "setting": "[5]", "result": "No frequency difference"}, {"measurement": "Tregs (foxp3+CD4+) in DCLN", "setting": "[5]", "result": "significant reduction"}, {"measurement": "CD4 to CD8 lymphocyte ratio in DCLN", "setting": "[5]; p = 0.0503", "result": "trend was found in the CD4 to CD8 lymphocyte ratio to be decreased"}, {"measurement": "CD11b+ myeloid splenocytes", "setting": "[5]; p = 0.0541", "result": "trend to increase"}, {"measurement": "CD4 to CD8 lymphocyte ratio in spleen", "setting": "[5]; p = 0.0962", "result": "no effect; also recorded: trend was found in the CD4 to CD8 lymphocyte ratio to be decreased"}]}
